Measured values published in ChEMBL document CHEMBL2331210, “New 2-benzylsulfanyl-nicotinic acid based 1,3,4-oxadiazoles: their synthesis and biological evaluation” (2013).
≈ marks a conversion by molar mass, not a printed value.

Tests used:
Type in all cases: functional
[1] = test system: Mycobacterium tuberculosis; assay: Antitubercular activity against Mycobacterium tuberculosis H37Rv assessed as growth inhibition after 12 to 28 days by L.J. agar MIC method; settings: for MIC: Mycobacterium tuberculosis, H37Rv
Aspergillus niger = assay: Antimicrobial activity against Aspergillus niger MTCC 282 assessed as growth inhibition measured after overnight incubation by broth dilution method
Staphylococcus aureus = assay: Antimicrobial activity against Staphylococcus aureus MTCC 96 assessed as growth inhibition measured after overnight incubation by broth dilution method
Pseudomonas aeruginosa = assay: Antimicrobial activity against Pseudomonas aeruginosa MTCC 2488 assessed as growth inhibition measured after overnight incubation by broth dilution method
Candida albicans = assay: Antimicrobial activity against Candida albicans MTCC 227 assessed as growth inhibition measured after overnight incubation by broth dilution method
Escherichia coli = assay: Antimicrobial activity against Escherichia coli MTCC 443 assessed as growth inhibition measured after overnight incubation by broth dilution method
Aspergillus clavatus = assay: Antimicrobial activity against Aspergillus clavatus MTCC 1323 assessed as growth inhibition measured after overnight incubation by broth dilution method
Streptococcus pyogenes = assay: Antimicrobial activity against Streptococcus pyogenes MTCC 442 assessed as growth inhibition measured after overnight incubation by broth dilution method

How did the “growth inhibition (GI)” value [1] turn out when `CO[C@H]1/C=C/O[C@@]2(C)Oc3c(C)c(O)c4c(O)c(c(/C=N/N5CCN(C)CC5)c(O)c4c3C2=O)NC(=O)/C(C)=C\C=C\[C@H](C)[C@H](O)[C@@H](C)[C@@H](O)[C@@H](C)[C@H](OC(C)=O)[C@@H]1C` [RIFAMPIN] was run?
The value was 99%.

And the MIC [1]?
The MIC was 40 µg/mL (≈ 48.6 µM).

What does the source list for `Cc1cnc(NC(=O)CCl)s1`?
MIC (Aspergillus niger): 500 µg/mL (≈ 2620 µM); MIC (Staphylococcus aureus): 500 µg/mL (≈ 2620 µM); growth inhibition (GI) [1]: 97%; MIC [1]: 250 µg/mL (≈ 1310 µM); MIC (Pseudomonas aeruginosa): 250 µg/mL (≈ 1310 µM); MIC (Candida albicans): 200 µg/mL (≈ 1050 µM); MIC (Escherichia coli): 250 µg/mL (≈ 1310 µM); MIC (Aspergillus clavatus): 500 µg/mL (≈ 2620 µM); MIC (Streptococcus pyogenes): 250 µg/mL (≈ 1310 µM)

Which results are given for `CN1CCN(C(=O)CCl)CC1`?
MIC (Aspergillus niger): > 1000 µg/mL; MIC (Staphylococcus aureus): 250 µg/mL (≈ 1420 µM); growth inhibition (GI) [1]: 99%; MIC [1]: 250 µg/mL (≈ 1420 µM); MIC (Pseudomonas aeruginosa): 100 µg/mL (≈ 566 µM); MIC (Candida albicans): 1000 µg/mL (≈ 5660 µM); MIC (Escherichia coli): 125 µg/mL (≈ 708 µM); MIC (Aspergillus clavatus): 500 µg/mL (≈ 2830 µM); MIC (Streptococcus pyogenes): 100 µg/mL (≈ 566 µM)

How did the MIC (Staphylococcus aureus) turn out when `CC1(C)S[C@@H]2[C@H](NC(=O)[C@H](N)c3ccccc3)C(=O)N2[C@H]1C(=O)O` [AMPICILLIN] was run?
Its MIC is 250 µg/mL (≈ 715 µM).

What about the MIC (Pseudomonas aeruginosa) of the same compound?
Its MIC is 100 µg/mL (≈ 286 µM).

What about the MIC (Escherichia coli) of the same compound?
The MIC was 100 µg/mL (≈ 286 µM).

What about the MIC (Streptococcus pyogenes) of the same compound?
Its MIC is 100 µg/mL (≈ 286 µM).
